Results from patent US7750003B2, “Compounds-943” (AstraZeneca AB, priority 2006, dated 2010).
pIC50: −log10 of the molar value.

Biological target: recombinant mTOR (FLAG-tagged, residues 1362-2549) (Homo sapiens, UniProt P42345)
Assay: In vitro mTOR kinase assay (Test (a), AlphaScreen)
Assay type: biochemical
Settings: ATP 20 μM, read-out: Test (a): IC50 versus mTOR kinase
How it was run: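 AlphaScreen read-out: a phospho-T389 p70 S6K antibody on acceptor beads captures the phosphorylated biotin-peptide on donor beads, with signal loss indicating inhibition.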

Sequence of recombinant mTOR (FLAG-tagged, residues 1362-2549) (P42345 1362-2549): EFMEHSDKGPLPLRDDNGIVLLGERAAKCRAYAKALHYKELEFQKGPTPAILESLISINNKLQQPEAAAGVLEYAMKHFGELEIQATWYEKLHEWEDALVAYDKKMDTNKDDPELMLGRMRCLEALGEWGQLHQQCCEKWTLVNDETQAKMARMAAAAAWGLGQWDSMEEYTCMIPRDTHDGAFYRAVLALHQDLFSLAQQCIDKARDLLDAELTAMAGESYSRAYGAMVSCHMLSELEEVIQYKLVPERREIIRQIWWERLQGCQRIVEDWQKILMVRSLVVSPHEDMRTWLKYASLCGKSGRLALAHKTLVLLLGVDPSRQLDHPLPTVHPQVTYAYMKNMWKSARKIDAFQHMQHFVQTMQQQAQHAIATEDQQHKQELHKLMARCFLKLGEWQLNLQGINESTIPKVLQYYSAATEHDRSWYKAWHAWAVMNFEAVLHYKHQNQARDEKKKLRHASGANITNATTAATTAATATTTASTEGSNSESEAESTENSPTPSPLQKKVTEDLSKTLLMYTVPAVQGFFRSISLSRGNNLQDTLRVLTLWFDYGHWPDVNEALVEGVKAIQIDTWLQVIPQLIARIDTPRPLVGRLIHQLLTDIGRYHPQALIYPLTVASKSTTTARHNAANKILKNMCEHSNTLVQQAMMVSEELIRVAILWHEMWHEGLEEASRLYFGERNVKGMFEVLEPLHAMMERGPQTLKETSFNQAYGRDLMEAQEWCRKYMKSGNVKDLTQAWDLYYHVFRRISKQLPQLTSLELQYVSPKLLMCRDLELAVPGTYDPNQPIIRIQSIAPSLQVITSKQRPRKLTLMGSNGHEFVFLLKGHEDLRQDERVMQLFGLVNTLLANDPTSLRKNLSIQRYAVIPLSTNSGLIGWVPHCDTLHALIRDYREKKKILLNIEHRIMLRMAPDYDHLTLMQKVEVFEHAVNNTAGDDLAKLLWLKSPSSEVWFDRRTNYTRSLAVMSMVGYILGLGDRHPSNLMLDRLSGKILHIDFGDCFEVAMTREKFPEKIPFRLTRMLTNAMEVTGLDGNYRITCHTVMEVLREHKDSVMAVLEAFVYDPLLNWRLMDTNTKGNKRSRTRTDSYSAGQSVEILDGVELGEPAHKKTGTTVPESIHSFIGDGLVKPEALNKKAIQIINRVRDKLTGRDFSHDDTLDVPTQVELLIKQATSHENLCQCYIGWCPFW

| pIC50 | Structure (SMILES) |
| --- | --- |
| 7.29 | C[C@H]1COCCN1c1cc(C(C)(C)O)nc(-c2ccc(NC(=O)NC3CC3)cc2)n1 [Example 37, 3-Cyclopropyl-1-[4-[4-(2-hydroxypropan-2-yl)-6-[(3S)-3-methylmorpholin-4-yl]pyrimidin-2-yl]phenyl]urea] |
| 6.11 | C[C@H]1COCCN1c1cc(CS(C)(=O)=O)nc(-c2ccc(NC(=O)N3CCCC(O)C3)cc2)n1 (stereo partly drawn) [Example 35i, 3-hydroxy-N-[4-[4-[(3S)-3-methylmorpholin-4-yl]-6-(methylsulfonylmethyl)pyrimidin-2-yl]phenyl]piperidine-1-carboxamide] |
| 8.21 | COCc1cc(N2CCOC[C@@H]2C)nc(-c2ccc(NC(=O)Nc3ccccc3)cc2)n1 [Example 32, 1-[4-[4-(Methoxymethyl)-6-[(3S)-3-methylmorpholin-4-yl]pyrimidin-2-yl]phenyl]-3-phenyl-urea] |
| 7.80 | C[C@H]1COCCN1c1cc(CNC(C)(C)CO)nc(-c2ccc(NC(=O)NC3CC3)cc2)n1 [Example 49i, 3-cyclopropyl-1-[4-[4-[[(1-hydroxy-2-methyl-propan-2-yl)amino]methyl]-6-[(3S)-3-methylmorpholin-4-yl]pyrimidin-2-yl]phenyl]urea] |
| 5.92 | C[C@H]1COCCN1c1cc(CS(C)(=O)=O)nc(-c2ccc(NC(=O)NCCN3CCOCC3)cc2)n1 [Example 35k, 1-[4-[4-[(3S)-3-methylmorpholin-4-yl]-6-(methylsulfonylmethyl)pyrimidin-2-yl]phenyl]-3-(2-morpholin-4-ylethyl)urea] |
| 6.14 | Cn1ccc(NC(=O)Nc2ccc(-c3nc(CS(C)(=O)=O)cc(N4CCOCC4)n3)cc2)n1 [Example 34c, 1-(1-methylpyrazol-3-yl)-3-[4-[4-(methylsulfonylmethyl)-6-morpholin-4-yl-pyrimidin-2-yl]phenyl]urea] |
| 6.05 | C[C@H]1COCCN1c1cc(C(C)(C)S(C)(=O)=O)nc(N2CCC(NC(=O)NC3CC3)CC2)n1 [Example 24p, 3-cyclopropyl-1-[1-[4-[(3S)-3-methylmorpholin-4-yl]-6-(2-methylsulfonylpropan-2-yl)pyrimidin-2-yl]-4-piperidyl]urea] |
| 7.43 | CNC(=O)Nc1ccc(-c2nc(CS(=O)(=O)CC(N)=O)cc(N3CCOC[C@@H]3C)n2)cc1 [Example 26a, 2-[[2-[4-(methylcarbamoylamino)phenyl]-6-[(3S)-3-methylmorpholin-4-yl]pyrimidin-4-yl]methylsulfonyl]acetamide] |
| 5.33 | C[C@H]1COCCN1c1cc(COc2ccccc2)nc(-c2ccc(NC(=O)Nc3ccccc3)cc2)n1 [Example 28, 1-[4-[4-[(3S)-3-Methylmorpholin-4-yl]-6-(phenoxymethyl)pyrimidin-2-yl]phenyl]-3-phenyl-urea] |
| 6.92 | CC(C)CNC(=O)Nc1ccc(-c2nc(CS(C)(=O)=O)cc(N3CCOCC3)n2)cc1 [Example 45b, 1-(2-methylpropyl)-3-[4-[4-(methylsulfonylmethyl)-6-morpholin-4-yl-pyrimidin-2-yl]phenyl]urea] |
| 6.07 | C[C@H]1COCCN1c1cc(CS(C)(=O)=O)nc(-c2cnc(NC(=O)Nc3ccc(F)cc3)s2)n1 [Example 46d, 3-(4-fluorophenyl)-1-[5-[4-[(3S)-3-methylmorpholin-4-yl]-6-(methylsulfonylmethyl)pyrimidin-2-yl]-1,3-thiazol-2-yl]urea] |
| 5.85 | C[C@H]1COCCN1c1cc(CN2CCN(C)CC2)nc(-c2ccc(NC(=O)NCc3cnn(C)c3)cc2)n1 [Example 52, 1-[4-[4-[(3S)-3-Methylmorpholin-4-yl]-6-[(4-methylpiperazin-1-yl)methyl]pyrimidin-2-yl]phenyl]-3-[(1-methylpyrazol-4-yl)methyl]urea] |
| 6.47 | C[C@H]1COCCN1c1cc(CS(C)(=O)=O)nc(-c2ccc(NC(=O)NC3CC3)nc2)n1 [Example 24r, 3-cyclopropyl-1-[5-[4-[(3S)-3-methylmorpholin-4-yl]-6-(methylsulfonylmethyl)pyrimidin-2-yl]pyridin-2-yl]urea] |
| 7.39 | CNC(=O)Nc1ccc(-c2nc(CS(=O)(=O)CCNC(C)=O)cc(N3CCOC[C@@H]3C)n2)cc1 [Example 26b, N-[2-[[2-[4-(methylcarbamoylamino)phenyl]-6-[(3S)-3-methylmorpholin-4-yl]pyrimidin-4-yl]methylsulfonyl]ethyl]acetamide] |

The remaining lines, values behind:

| Structure (SMILES) | pIC50 |
| --- | --- |
| C[C@H]1COCCN1c1cc(CS(C)(=O)=O)nc(-c2ccc(NC(=O)NCc3ccncc3)cc2)n1 [Example 24e, 1-[4-[4-[(3S)-3-methylmorpholin-4-yl]-6-(methylsulfonylmethyl)pyrimidin-2-yl]phenyl]-3-(pyridin-4-ylmethyl)urea] | 6.09 |
| CN(C)CCN(C)C(=O)Nc1ccc(-c2nc(CS(C)(=O)=O)cc(N3CCOCC3)n2)cc1 [Example 8c, 1-(2-dimethylaminoethyl)-1-methyl-3-[4-[4-(methylsulfonylmethyl)-6-morpholin-4-yl-pyrimidin-2-yl]phenyl]urea] | 5.66 |
| CS(=O)(=O)Cc1cc(N2CCOCC2)nc(-c2ccc(NC(=O)Nc3ccc(F)c(Cl)c3)cc2)n1 [Example 7g, 3-(3-chloro-4-fluoro-phenyl)-1-[4-[4-(methylsulfonylmethyl)-6-morpholin-4-yl-pyrimidin-2-yl]phenyl]urea] | 5.89 |
| C[C@H]1COCCN1c1cc(CS(=O)(=O)CC#N)nc(-c2ccc(NC(=O)N(C)C)cc2)n1 [Example 13, 3-[4-[4-(Cyanomethylsulfonylmethyl)-6-[(3S)-3-methylmorpholin-4-yl]pyrimidin-2-yl]phenyl]-1,1-dimethyl-urea] | 5.68 |
| CCNC(=O)Nc1ccn(-c2nc(CS(C)(=O)=O)cc(N3CCOC[C@@H]3C)n2)n1 [Example 24l, 1-ethyl-3-[1-[4-[(3S)-3-methylmorpholin-4-yl]-6-(methylsulfonylmethyl)pyrimidin-2-yl]pyrazol-3-yl]urea] | 6.08 |
| CCNC(=O)Nc1ccc(-c2nc(CS(C)(=O)=O)cc(N3CCOC[C@@H]3C)n2)cc1F [Example 4, 1-Ethyl-3-[2-fluoro-4-[4-[(3S)-3-methylmorpholin-4-yl]-6-(methylsulfonylmethyl)pyrimidin-2-yl]phenyl]urea] | 7.51 |
| COCCNC(=O)Nc1ccc(-c2nc(CS(=O)(=O)C(C)C)cc(N3CCOCC3)n2)cc1 [Example 20p, 3-(2-methoxyethyl)-1-[4-[4-morpholin-4-yl-6-(propan-2-ylsulfonylmethyl)pyrimidin-2-yl]phenyl]urea] | 6.04 |
| CCNC(=O)Nc1ccc(-c2nc(N3CCOC[C@@H]3C)cc(C(C)(C)S(C)(=O)=O)n2)cc1 [Example 21g, 1-ethyl-3-[4-[4-[(3S)-3-methylmorpholin-4-yl]-6-(2-methylsulfonylpropan-2-yl)pyrimidin-2-yl]phenyl]urea] | 7.70 |
| C[C@H]1COCCN1c1cc(CO)nc(-c2ccc(NC(=O)Nc3ccccc3)cc2)n1 [Example 6, 1-[4-[4-(Hydroxymethyl)-6-[(3S)-3-methylmorpholin-4-yl]pyrimidin-2-yl]phenyl]-3-phenyl-urea] | 6.25 |
| C[C@H]1COCCN1c1cc(CS(C)(=O)=O)nc(-c2ccc(NC(=O)NCCc3c[nH]cn3)cc2)n1 [Example 24b, 3-[2-(1H-imidazol-4-yl)ethyl]-1-[4-[4-[(3S)-3-methylmorpholin-4-yl]-6-(methylsulfonylmethyl)pyrimidin-2-yl]phenyl]urea] | 7.42 |
| COCCN(C)C(=O)Nc1ccc(-c2nc(CS(C)(=O)=O)cc(N3CCOC[C@@H]3C)n2)cc1F [Example 4f, 3-[2-Fluoro-4-[4-[(3S)-3-methylmorpholin-4-yl]-6-(methylsulfonylmethyl)pyrimidin-2-yl]phenyl]-1-(2-methoxyethyl)-1-methyl-urea] | 6.17 |
| COCCNC(=O)Nc1ccc(-c2nc(N3CCOCC3)cc(C(C)(C)S(C)(=O)=O)n2)cc1 [Example 21e, 3-(2-methoxyethyl)-1-[4-[4-(2-methylsulfonylpropan-2-yl)-6-morpholin-4-yl-pyrimidin-2-yl]phenyl]urea] | 6.00 |
| CNC(=O)Nc1ccc(-c2nc(N3CCOCC3)cc(C(C)(C)S(C)(=O)=O)n2)cc1 [Example 21, 3-Methyl-1-[4-[4-(2-methylsulfonylpropan-2-yl)-6-morpholin-4-yl-pyrimidin-2-yl]phenyl]urea] | 7.30 |
